From patent US12710366B2, “Dyes undergoing changes in color and fluorescence upon binding of organic oxo compounds” (Bundesrepublik Deutschland, vertreten durch den …, priority 2020, dated 2026)
Where “and” joins values, the source holds several entries; their conditions need not be identical. Equal values may be shown once. Entries after “also recorded” stand apart in the source; their conditions may differ.

Assays:
[1] = Spectroscopic titration of compound 19 with ENOX-TBA in MeCN; assay type: binding
Method: (§1) Absorption spectra and spectrophotometric titrations were acquired with a Specord 210 Plus spectrometer (Analytik Jena), using dilute solutions with an absorbance of about 0.1 at the absorption maximum. The binding constants were assessed with BindFit v0.5 software. Fluorescence spectra and titrations were carried out on a FluoroMax 4 spectrofluorometer (Horiba Jobin-Yvon).
This example illustrates the titration of the thiourea-based compound 19 with the ammonium salt of the antibiotic enoxacin (ENOX-TBA) in MeCN. […] The bathochromic shift of the absorption band upon binding can be rationalized considering that the donor-acceptor interaction between the thiourea and benzoxadiazole is reinforced with the charge donation of the electron-rich carboxylate anion to the thiourea through such supramolecular interactions. […] The estimated binding constant for this interaction was calculated to be K19/ENOX-TBA=[…] in MeCN.

[2] = UV/vis absorption and emission spectra (Stokes shift); assay type: physicochemical
Method: as §1
Normalized UV/vis absorption and emission (λex=465 nm) spectra at a fixed concentration of thiourea-based compound 19 were recorded in CHCl3, toluene, acetonitrile (MeCN) and methanol (MeOH), yielding Stokes shifts between 160 nm and 230 nm, respectively. This positive solvatochromism is ascribed to the effective intramolecular charge transfer from the two electron-donating groups (thiourea and tertiary amine) to the electron-accepting benzodiazole as the solvent polarity increases (FIG. 1-4). […]
Normalized UV/vis absorption and emission spectra of guanidinium-based compound 25 at a fixed concentration were recorded in CHCl3 and MeCN. Sizable Stokes shifts of 180 nm and 210 nm were observed (FIGS. 8 and 9) as a result of the effective intramolecular charge transfer process established from the two electron-donating groups (guanidinium and tertiary amine) to the electron-accepting benzodiazole in solvents of different polarity.

[3] = Solubility in polar solvents; assay type: physicochemical; settings: polar organic solvents and solvent/water mixtures
[4] = Spectroscopic titration of compound 25 with TBA-OAc; assay type: binding; settings: for change of UV/vis absorption band upon titration with TBA-OAc / change of fluorescence emission upon titration with TBA-OAc: c[25]=9×10^−6 M
Method: as §1
The bathochromic shift of the absorption band upon binding can be rationalized considering that the donor-acceptor interaction between the guanidinium and the benzoxadiazole is reinforced by a charge donation of the electron-rich acetate anion to the guanidinium.

absorption band position ([2]; in MeCN) [nm] | Stokes shift ([2]; in acetonitrile (MeCN)) | Stokes shift ([2]; in chloroform (CHCl3)) | Stokes shift ([2]; in methanol (MeOH)) [nm] | Stokes shift ([2]; in toluene) [nm] | absorption band position ([2]; CHCl3 and MeCN) [nm] | SMILES | interaction with oxoanions (e.g. ENOX-TBA) [1] | change of UV/vis absorption band upon titration with ENOX-TBA ([1]; MeCN, c[19]=2.2×10^−5 M) | solubility [3] | change of UV/vis absorption band upon titration with TBA-OAc ([4]; CHCl3) | change of fluorescence emission upon titration with TBA-OAc ([4]; CHCl3) | change of UV/vis absorption band upon titration with TBA-OAc ([4]; MeCN) | change of fluorescence emission upon titration with TBA-OAc ([4]; MeCN) | interaction with oxoanions (e.g. TBA-OAc) ([4]; non-polar and polar solvents)
462 | > 180 nm | > 170 nm | > 230 | > 160 | – | C=C(C)C(=O)OCCN(C)c1ccc(NC(=S)NC(=O)c2ccccc2)c2nonc12 [Compound 19] | can interact | decrease and red shift | – | – | – | – | – | –
– | – | – | – | – | – | C=C(C)C(=O)OCCN(C)c1ccc(NC(=N)NC(=O)c2ccccc2)c2nonc12 [Compound 23, 2-((7-(3-benzoylguanidino)benzo[c][1,2,5]oxadiazol-4-yl)(methyl)amino)ethyl methacrylate] | – | – | soluble in polar organic solvents and polar organic solvent/water mixtures | – | – | – | – | –
– | 210 nm and > 210 nm | 180 nm and > 180 nm | – | – | 450 | C=C(C)C(=O)OCCN(C)c1ccc(NC(=N)NC(=O)c2ccccc2)c2nonc12.Cl [Compound 25, benzamido((7-((2-(methacrycrykoyloxy)ethyl)(methyl)amino)benzo[c][1,2,5]oxadiazol-4-yl)amino)methaniminium chloride] | – | – | – | decrease and a red shift | red shift and decrease; also recorded: quenching and a red shift; also recorded: decrease and red shift | decrease and a red shift | red shift and decrease; also recorded: quenching and a red shift; also recorded: decrease and red shift | can interact
